Data as given in PubChem BioAssay (NCI).
Several values for one entry are separate records, joined by “and”; a condition that tells them apart may be missing. Equal entries are not always repeated.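 The compound was tested at five concentrations on cells cultured in 96-well plates, with a 48-hour exposure period. GI50 is the concentration that inhibits growth by half. The concentration for full growth arrest is given as TGI.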

Legend:
Assay in all cases: NCI tumour cell line growth inhibition, 48 h
HS 578T breast = tested on: HS 578T breast
HCT-15 colon = tested on: HCT-15 colon
A498 renal = tested on: A498 renal
RPMI-8226 leukemia = tested on: RPMI-8226 leukemia
MCF7 breast = tested on: MCF7 breast
MOLT-4 leukemia = tested on: MOLT-4 leukemia
NCI-H226 lung = tested on: NCI-H226 lung
SF-295 CNS = tested on: SF-295 CNS
HOP-92 NSCLC = tested on: HOP-92 NSCLC
NCI/ADR-RES ovarian = tested on: NCI/ADR-RES ovarian

| SMILES | TGI (HS 578T breast) | TGI (HCT-15 colon) | TGI (A498 renal) | TGI (RPMI-8226 leukemia) | TGI (MCF7 breast) | TGI (MOLT-4 leukemia) | TGI (NCI-H226 lung) | TGI (SF-295 CNS) | GI50 (HS 578T breast) | GI50 (HOP-92 NSCLC) | TGI (HOP-92 NSCLC) | GI50 (HCT-15 colon) | GI50 (NCI/ADR-RES ovarian) | TGI (NCI/ADR-RES ovarian) | GI50 (A498 renal) | GI50 (RPMI-8226 leukemia) | GI50 (MOLT-4 leukemia) | GI50 (NCI-H226 lung) | GI50 (SF-295 CNS) | GI50 (MCF7 breast) |
| --- | --- | --- | --- | --- | --- | --- | --- | --- | --- | --- | --- | --- | --- | --- | --- | --- | --- | --- | --- | --- |
| COc1cccc(C2SC(N)=Nc3c2c(C)nn3C(=O)Cc2ccccc2)c1 (centres undefined) | > 100 µM | > 100 µM | > 100 µM | > 100 µM | > 100 µM | > 100 µM | > 100 µM | > 100 µM |  |  |  |  |  |  |  |  |  |  |  |  |
| Oc1c(Cl)cc(Cl)c2ccc(Cn3cc(-c4ccc(C(F)(F)F)cc4)nn3)nc12 | 8.44 µM | 3.3 µM | 13.8 µM | 6.33 µM |  | 8.8 µM | 26.7 µM | 32.1 µM | 2.38 µM | 1900 nM | 5.82 µM | 1.42 µM | 19 µM | 64.2 µM | 3.57 µM | 1.25 µM | 0.825 µM | 5.64 µM | 17.2 µM |  |
| CC1NC(=O)C2=C1C(=O)NC(=O)C2 (centres undefined) | > 100 µM | > 100 µM | > 100 µM | > 100 µM | > 100 µM |  | > 100 µM | > 100 µM | > 100 µM | > 100000 nM | > 100 µM | > 100 µM | > 100 µM | > 100 µM | > 100 µM | > 100 µM |  | > 100 µM | > 100 µM | > 100 µM |
| CC1=CC(C)(C)NN1C1=NS(=O)(=O)c2ccccc2N1C | > 100 µM | > 100 µM | > 100 µM |  | > 100 µM | > 100 µM | > 100 µM | > 100 µM |  |  | > 100 µM |  |  | > 100 µM |  |  |  |  |  |  |
| CC(C)CCCCCCCCCCCCC(=O)NCC(=O)NC1C(O)C(O)C(Nc2ncnc3nc[nH]c23)OC1C(O)CO (centres undefined) | 0.446 µM | 0.896 µM and 1.1 µM | 0.0123 µM and 0.0132 µM |  | 0.394 µM and 0.352 µM | 0.153 µM and 0.43 µM |  |  |  | < 0.01 nM |  | 0.00599 µM and 0.0249 µM |  | 0.124 µM and 0.0422 µM | 0.005 µM |  |  |  |  | 0.00287 µM and 0.0113 µM |
| CCc1ccc(COC(=O)C2=C(C)NC(C)=C(C(=O)OCc3ccc(CC)cn3)C2C2=COCCO2)nc1 | 37.7 µM | 71.4 µM |  |  | 43 µM | 33.6 µM | 40 µM | 61.3 µM |  |  | 43 µM |  |  | 63.4 µM |  |  |  |  |  |  |
| O=C(O)C1[O][Sb][O]C(C(=O)O)C1O (centres undefined) | > 100 µM | > 100 µM | > 100 µM |  |  | > 100 µM | > 100 µM | > 100 µM | > 100 µM | > 100000 nM | > 100 µM | > 100 µM | > 100 µM | > 100 µM | > 100 µM |  | > 100 µM | > 100 µM | > 100 µM |  |
| CCOP(=O)(OCC)C(C(=O)OC)C(=O)C(=O)Nc1cccc(O)c1 (centres undefined) | > 100 µM | > 100 µM | > 100 µM |  | > 100 µM | > 100 µM | > 100 µM | > 100 µM |  |  | > 100 µM |  |  | > 100 µM |  |  |  |  |  |  |
| O=C1c2ccccc2-c2c1c1ccccc1c(=O)n2CCCNCCn1c2c(c3ccccc3c1=O)C(=O)c1ccccc1-2 | 64.6 µM | 13 µM | 25.3 µM |  | 13.8 µM |  | 20.7 µM | 27.5 µM | 16.5 µM | 14100 nM | 28.1 µM | 2.74 µM | 11.3 µM | 25.9 µM | 12.7 µM |  |  | 4.59 µM | 7.77 µM | 3.47 µM |
| CC(=O)C1=C(O)C=C2Oc3c(C(=O)/C=C/c4cc(Cl)cc(Cl)c4)c(O)c(C)c(O)c3[C@]2(C)C1=O | 3.89 µM | 2.54 µM | 0.5 µM | 1.14 µM | 1.72 µM | 1.33 µM | 5.49 µM | 0.887 µM | 0.641 µM |  |  | 0.539 µM | 0.537 µM | 1.96 µM | 0.259 µM | 0.452 µM | 0.409 µM | 1.21 µM | 0.36 µM | 0.458 µM |
| Cc1cc2c(-c3nc4ccccn4c3N)c(O)c(O)cc2c(O)c1-c1c(C)cc2c(-c3nc4ccccn4c3N)c(O)c(O)cc2c1O | > 25 µM | > 25 µM |  | > 25 µM | > 25 µM | > 25 µM | > 25 µM |  | 0.797 µM | 650 nM | 2.29 µM | 0.58 µM | 4.49 µM | > 25 µM |  | 0.661 µM | 1.01 µM | 1.44 µM |  | 0.606 µM |
| CCOC(=O)C(C#N)C1=CC(=O)C(=O)c2ccc(O)cc21 (centres undefined) | > 100 µM | > 100 µM | > 100 µM | > 100 µM | > 100 µM | > 100 µM | > 100 µM | > 100 µM |  |  |  |  |  | > 100 µM |  |  |  |  |  |  |
| CC1(C)CCCC(C)(C2CCC3(C)C2C(O)CC2C4(C)CCC(O)C(C)(C)C4CCC23C)O1 (centres undefined) | 89.1 µM | > 100 µM | > 100 µM |  | > 100 µM | > 100 µM | > 100 µM | > 100 µM |  |  | > 100 µM |  |  | > 100 µM |  |  |  |  |  |  |
